Assay results from US20240408119A1, “DELIVERY OF THERAPEUTIC ALKALOID COMPOUNDS” (priority 2022, published 2024).
Read-outs that look alike come from different tables or passages of the source.

Assays:
in vivo [1] = type: in vivo, mouse; settings: 001 (metabolite) in brain after 321 IV 2 mg/kg
Experimental: Total fifteen male mice were used in this study with n=3 mice/time point with sparse sampling study design. Animals were administered through intravenous route with solution formulation of 321 at 2 mg/kg dose.
(§1) The extraction procedure for plasma/brain samples and the spiked plasma/brain calibration standards were identical (PMSF Stabilized Plasma and Brain used for Preparation of calibration standards): A 20 μL of study sample plasma/brain or spiked plasma/brain calibration standard was added to individual pre-labeled micro-centrifuge tubes followed by 200 μL of internal standard prepared in acetonitrile (Rosuvastatin, 50 ng/mL) was added except for blank, where 200 μL of acetonitrile was added. Samples were vortexed for 5 minutes. Samples were centrifuged for 10 minutes at a speed of 4000 rpm at 4° C. Following centrifugation, 200 μL of clear supernatant was transferred in 96 well plates and analyzed using LC-MS/MS.
(§2) Brain samples were diluted (1-part of tissue: 2-part of buffer) and homogenized. The homogenate was submitted for bioanalysis and the concentrations (ng/mL) received were corrected with dilution factor (3×) and the final reported concentrations were represented in ng/g.
The plasma and brain concentration-time data of 321 and 001 were used for the pharmacokinetic analysis.
LLOQ: 321: 1.02 ng/mL for plasma and brain 001: 1.01 ng/mL for plasma and brain

[2] = Pharmacokinetics of 358, single IV in male C57BL/6 mice; type: in vivo, mouse
Experimental: Total fifteen male mice were used in this study with n=3 mice/time point with sparse sampling study design. Animals were administered through intravenous route with solution formulation of 358 at 2 mg/kg dose.
The extraction procedure for plasma/brain samples and the spiked plasma/brain calibration standards were identical (PMSF Stabilized Plasma and Brain used for Preparation of calibration standards):
as §1, with “A” for “The extraction procedure for plasma/brain samples and the spiked plasma/brain calibration standards were identical (PMSF Stabilized Plasma and Brain used for Preparation of calibration standards): A”, “(Rosuvastatin+Cetrizine,” for “(Rosuvastatin,”
Note: Brain samples were diluted (1-part of tissue: 2-part of buffer) and homogenized. The homogenate was submitted for bioanalysis and the concentrations (ng/mL) received were corrected with dilution factor (3×) and the final reported concentrations were represented in ng/g.
The plasma and brain concentration-time data of 358 and 001 were used for the pharmacokinetic analysis.
LLOQ: 358: 1.02 ng/mL for plasma and brain 001: 1.01 ng/mL for plasma and brain

in vivo [3] = type: in vivo, mouse; settings: 001 (metabolite) in brain after 323 IV 2 mg/kg
Experimental: Total fifteen male mice were used in this study with n=3 mice/time point with sparse sampling study design. Animals were administered through intravenous route with solution formulation of 323 at 2 mg/kg dose.
as §1, with “(Rosuvastatin+Cetrizine,” for “(Rosuvastatin,”
as §2
The plasma and brain concentration-time data of 323 and 001 were used for the pharmacokinetic analysis.
LLOQ: 323: 1.02 ng/mL for plasma and brain 001: 1.01 ng/mL for plasma and brain

[4] = in vivo; cited from earlier work
[5] = Metabolic Stability in Human Hepatocytes; type: in vitro ADME; settings: cryopreserved human hepatocytes, 37° C.
Experimental: A 2.5 uL aliquot of 100 μM test compound was incubated with 247.5 uL of cryopreserved hepatocytes suspended in serum-free incubation medium at 5×10^5 viable cells/mL. The mixture was incubated at 37° C. and shaken at 500 rpm for the designated time points (0.5, 15, 30, 60, 90, or 120 min). At each time point, 25 μL aliquot of incubation mixture was transferred to 125 μL of cold acetonitrile containing internal standard, followed by centrifugation for 30 min at 3,220 g. 100 μL of supernatant was mixed with 100 μL of distilled water for analysis by LC-MS/MS. Peak areas were determined from extracted ion chromatograms and in vitro half-life (t1/2) was determined from the concentration vs time regression slope, in vitro t1/2=0.693/k. Conversion of the in vitro t1/2 (in min) into the in vitro intrinsic clearance (in vitro CLint, in μL/min/10^6 cells) is done using: in vitro CLint=kV/N.

[6] = Hydrolysis Assay - Condition 2 (DI Water); type: physicochemical; settings: 25° C., 0.5 mM
Experimental: 50 μL of compound (10 mM) in DMSO was diluted into 950 μL of DI water to a final concentration of 0.5 mM. The hydrolysis kinetics were conducted at 25° C. and measured by LCMS at a certain time interval.
(§3) The corresponding LCMS chromatogram were recorded and the conversions were calculated by integration of each peak.
(§4) • 1) LCMS spectra were obtained using Agilent 1200G1956A or SHIMADZU LCMS-2020. Standard LCMS conditions were as follows (running time 1.55 minutes): • Acidic condition: Mobile Phase A: 0.0375% TFA in water (v/v). Mobile Phase B: 0.01875% TFA in acetonitrile (v/v); Column: Kinetex EVO C18 30*2.1 mm, 5 μm. • Basic condition: Mobile Phase A: 0.025% NH3·H2O in water (v/v). Mobile Phase B: Acetonitrile; Column: Kinetex EVO C18 2.1×30 mm, 5 μm. • 2) Conversion (%)=peak area 1/(peak area 1+peak area 2)*100%, peak area 1 is the integration of hydrolyzed product, peak area 2 is the integration of starting material.

[7] = Hydrolysis Assay - Condition 1 (SGF); type: physicochemical; settings: SGF with pepsin pH 1.5, 37° C., 0.5 mM
Experimental: 50 μL of compound (10 mM) in DMSO was diluted into 950 μL of Simulated Gastric Fluid (SGF) with pepsin (pH 1.5) to a final concentration of 0.5 mM. The hydrolysis kinetics were conducted at 37° C. and measured by LCMS at a certain time interval.
as §3, §4

[8] = type: in vitro ADME, human; settings: prodrug remaining, 5 μM, 37° C.
Experimental: (§5) Each test was carried out in duplicate for each time point; 0 min, 15 min, 30 min, 60 min, 120, 240 min. […]

[9] = type: in vitro ADME, mouse; settings: prodrug remaining, 5 μM, 37° C.
Experimental: as §5

[10] = fermentation, exposure to light, exposure to heat, aqueous medium; cited from earlier work

## COc1ccc([C@@]23CCC(=O)C[C@@H]2N(C)CC3)cc1OC (racemic) [Compound 001, (3aS,7aS)-3a-(3,4-dimethoxyphenyl)-1-methyl-2,3,4,5,7,7a-hexahydroindol-6-one, reference compound]
In vivo [1]
  AUClast: 12.72 ng·h/g
[2]; 001 (metabolite) in brain after 358 IV 2 mg/kg
  AUClast: 190.88 ng·h/g
In vivo [3]
  AUClast: 411.95 ng·h/g
[4]
  half-life in plasma: less than 2 hours
[5]
  half-life: 17 min
  hepatocyte CLint: 40 µL/min/1e6 cells

## COc1ccc([C@@]23CCC(OC(=O)OC(C)(C)C)=C[C@@H]2N(C)CC3)cc1OC [Compound 358, [(3aS,7aS)-3a-(3,4-dimethoxyphenyl)-1-methyl-3,4,5,7a-tetrahydro-2H-indol-6-yl] tert-butyl carbonate]
[6]; 1 min
  Condition 2 Conversion (%): 0%
[6]; 5 min
  Condition 2 Conversion (%): 0%
[6]; 30 min
  Condition 2 Conversion (%): 0%
[6]; 1 h
  Condition 2 Conversion (%): 0%
[6]; 4 h
  Condition 2 Conversion (%): 83.46%
[6]; 24 h
  Condition 2 Conversion (%): 100%
[2]; 358 after 358 IV 2 mg/kg
  brain concentrations quantifiable up to: ≤ 0.08 h
[2]; male, C57BL/6, mouse, brain, 358 after 358 IV 2 mg/kg, read-out: Brain concentrations (mean)
  concentration at 0.08 h: 18.3 ng/g
[2]; male, C57BL/6, mouse, in vivo, iv, 2 mg/kg
  plasma concentrations quantifiable up to: up to 0.25 h
[2]; male, C57BL/6, mouse, plasma, 358 after 358 IV 2 mg/kg, read-out: Plasma concentrations (mean)
  concentration at 0.08 h: 14.3 ng/mL
[2]; male, C57BL/6, mouse, plasma, 358 after 358 IV 2 mg/kg, 0.25 h, average of two values, read-out: Plasma concentrations (mean)
  concentration at 0.25 h: 1.51 ng/mL
[7]; 1 min
  Condition 1 Conversion (%): 0%
[7]; 5 min
  Condition 1 Conversion (%): 0%
[7]; 30 min
  Condition 1 Conversion (%): 0%
[7]; 1 h
  Condition 1 Conversion (%): 5%
[7]; 4 h
  Condition 1 Conversion (%): 100%
[7]; 24 h
  Condition 1 Conversion (%): 100%
[8]; 0 min
  Human Plasma Prodrug (%): 100%
[8]; 15 min
  Human Plasma Prodrug (%): 75.4%
[8]; 30 min
  Human Plasma Prodrug (%): 58.1%
[8]; 60 min
  Human Plasma Prodrug (%): 35.5%
[8]; 120 min
  Human Plasma Prodrug (%): 11.7%
[8]; 240 min
  Human Plasma Prodrug (%): 0.7%
[9]; 0 min
  Mouse Plasma Prodrug (%): 100%
[9]; 15 min
  Mouse Plasma Prodrug (%): 14.8%
[9]; 30 min
  Mouse Plasma Prodrug (%): 10.3%
[9]; 60 min
  Mouse Plasma Prodrug (%): 5.4%
[9]; 120 min
  Mouse Plasma Prodrug (%): 0.0%
[9]; 240 min
  Mouse Plasma Prodrug (%): 0.0%

## COc1ccc([C@@]23CCC(=O)C[C@@H]2N(C)CC3)cc1OC [Mesembrine, 3a-(3,4-dimethoxyphenyl)-octahydro-1-methyl-6H-indol-6-one]
[10]
  stability: unstable
